{"source": "paper PMC10467108", "about": "“Of Seven New K^+ Channel Inhibitor Peptides of Centruroides bonito, α-KTx 2.24 Has a Picomolar Affinity for Kv1.2” (Toxins, 2023)", "key": {"Kv1.2": {"system": "Kv1.2", "parameters": "method as in 7 sources, ref 40 (CoTx1), 33 (II-x toxins), 45, 46 (Maurotoxin) ||| ref 32 (CoTx2), 33 (II-10.9), 34 (Ce3) ||| ref 33 (II-x toxins), 47, 48 (Pi4) ||| ref 33 (II-10.4), 32 (CoTx2) ||| ref 33 = [33]; PMID 26921461; doi:10.1016/j.toxicon.2016.02.017; 33. Olamendi-Portugal T. Bartok A. Zamudio-Zuñiga F. Balajthy A. Becerril B. Panyi G. Possani L.D. Isolation, chemical and functional characterization of several new K+-channel blocking peptides from ||| ...", "settings": "cited from earlier work", "description": "Macroscopic Kv1.1 and Kv1.2 currents were measured in transiently transfected CHO cells."}, "hKv1.2": {"biological_target": "T1, hKv1.2 (Homo sapiens, UniProt P16389)", "T1 construct": "GFP (C); host or cells: CHO cells, transient transfection (Lipofectamine 2000)", "T1 sequence (P16389 whole entry)": "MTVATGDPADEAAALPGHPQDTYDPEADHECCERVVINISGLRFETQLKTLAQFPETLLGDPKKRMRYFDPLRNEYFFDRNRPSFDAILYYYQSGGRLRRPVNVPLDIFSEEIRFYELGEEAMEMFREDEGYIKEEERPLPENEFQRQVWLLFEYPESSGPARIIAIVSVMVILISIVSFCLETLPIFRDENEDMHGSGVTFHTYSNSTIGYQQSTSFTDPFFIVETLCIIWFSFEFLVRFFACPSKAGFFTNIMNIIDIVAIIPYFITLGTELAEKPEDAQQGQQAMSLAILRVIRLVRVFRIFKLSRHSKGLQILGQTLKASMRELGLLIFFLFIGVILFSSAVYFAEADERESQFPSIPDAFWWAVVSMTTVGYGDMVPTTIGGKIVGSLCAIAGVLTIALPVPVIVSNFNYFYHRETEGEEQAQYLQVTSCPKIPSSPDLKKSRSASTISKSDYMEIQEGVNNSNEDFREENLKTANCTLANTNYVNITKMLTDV", "assay": "Whole-cell patch-clamp of Kv1.2 currents in transiently transfected CHO cells", "type": "cell-based", "settings": "for pKd / Hill coefficient H, Kv1.2 block: Hill fit of RCF vs toxin concentration, n ≥ 3; for pKd: cumulative application, pulses to +50 mV from -120 mV, read-out: Kd for Kv1.2", "description": "(§1) Macroscopic Kv1.1 and Kv1.2 currents were measured in transiently transfected CHO cells. For Kv1.3 current recording, human T lymphocytes were activated by Phytohemagglutinin A (PHA) to increase Kv1.3 channel expression, and micro-pipettes were filled with Ca^2+-free solution to prevent KCa3.1 channel activation. K^+ currents were evoked by applying 15-ms-long depolarization pulses to +50 mV from a holding potential of −120 mV except for Kv1.2, as it has highly variable activation kinetics; therefore, 15–500 ms-long pulses were applied to maximize the open probability of Kv1.2 channel. CboK peptide toxins were dissolved in a freshly prepared extracellular solution and applied to the whole-cell patch-clamped cells using a micro perfusion system at 200 μL/min flow rate.\n(§2) CHO cells were transiently transfected by using Lipofectamine 2000 kit (Invitrogen, Carlsbad, CA, USA), as per the manufacturer’s protocol with vector pCMV6-AC-GFP (cat# RG211000 and RC222200; OriGene Technologies, Rockville, MD, USA) encoding hKv1.1 (hKCNA1 gene) or hKv1.2 (hKCNA2 gene) ion channels. Cells were grown under standard conditions in an incubator at 37 °C and 5% CO2 for 24 h. GFP-positive transfected cells were identified by utilizing a Nikon TMS fluorescence microscope (Nikon, Tokyo, Japan) using bandpass filters of 455–495 nm and 515–555 nm for excitation and emission, respectively.\n(§3) The patch-clamp technique was used for measuring whole-cell currents in voltage-clamped mode using standard protocols. Electrophysiological recordings were acquired by using Multiclamp 700B amplifier connected to a personnel computer with an Axon Digidata1440 digitizer (Molecular Devices, Sunnyvale, CA, USA). Pipettes were pulled from GC150F-15 borosilicate capillaries (Harvard Apparatus, Kent, UK) having 3−5 MΩ tip resistance in the bath solution. All current recordings were carried out at room temperature (20−25 °C) and only those currents were recorded and subjected to analyses when the leak current at holding potential was <5% of peak current at the test potential. Current traces were lowpass-filtered by utilizing the built-in analog four-pole Bessel filters of the amplifiers and were sampled at 20 kHz which is at least twice the filter cut-off frequency. A gravity-driven perfusion system was used to perfuse the cells with control and test solutions and excess fluid was removed continuously through vacuum suction. The extracellular solution (bath solution) contained 145 mM NaCl, 5.5 mM glucose, 5 mM KCl, 2.5 mM CaCl2, 1 mM MgCl2, and 10 mM HEPES, having pH of 7.35 and an osmolarity between 302 and 308 mOsM/L. Toxins were dissolved in bath solution at different molar concentrations and supplemented with 0.1 mg/mL of bovine serum albumin BSA (Sigma-Aldrich, Budapest, Hungary). The intracellular solution (pipette filling) was comprised of 140 mM KF, 2 mM MgCl2, 1 mM CaCl2, 10 mM HEPES, and 11 mM EGTA, with a pH of 7.22 and an osmolarity of ~295 mOsM/L.\n(§4) Generally, to evoke the Kv1.xcurrents, 15-ms-long depolarization pulses to +50 mV from a holding potential of −120 mV were applied, and the current traces were recorded after every 15 s. However, in the case of Kv1.2, due to its variable activation kinetics, the duration of the depolarization pulse was set between 15 and 500 ms to attain the saturated peak current."}, "hKv1.1": {"biological_target": "T2, hKv1.1 (Homo sapiens, UniProt Q09470)", "T2 construct": "host or cells: CHO cells, transient transfection (Lipofectamine 2000)", "T2 sequence (Q09470 whole entry)": "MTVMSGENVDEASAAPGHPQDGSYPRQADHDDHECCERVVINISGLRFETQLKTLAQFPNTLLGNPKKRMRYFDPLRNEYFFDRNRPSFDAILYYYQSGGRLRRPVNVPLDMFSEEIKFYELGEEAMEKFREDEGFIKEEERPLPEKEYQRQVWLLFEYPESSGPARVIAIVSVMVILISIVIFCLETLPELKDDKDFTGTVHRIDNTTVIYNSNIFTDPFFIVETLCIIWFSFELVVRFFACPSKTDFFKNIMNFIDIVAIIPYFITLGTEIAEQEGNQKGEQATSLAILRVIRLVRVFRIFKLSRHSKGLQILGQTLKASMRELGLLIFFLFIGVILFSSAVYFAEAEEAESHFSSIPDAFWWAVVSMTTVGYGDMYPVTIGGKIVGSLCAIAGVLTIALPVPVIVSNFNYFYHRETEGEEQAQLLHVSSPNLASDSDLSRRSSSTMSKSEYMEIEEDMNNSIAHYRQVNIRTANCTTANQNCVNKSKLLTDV", "assay": "Whole-cell patch-clamp of Kv1.1 currents in transiently transfected CHO cells", "type": "cell-based", "description": "as §1, §2, §3, §4"}, "Kv1.3 [1]": {"biological_target": "T3, Kv1.3 (Homo sapiens, UniProt P22001)", "T3 construct": "endogenous in cells", "T3 sequence (P22001 whole entry)": "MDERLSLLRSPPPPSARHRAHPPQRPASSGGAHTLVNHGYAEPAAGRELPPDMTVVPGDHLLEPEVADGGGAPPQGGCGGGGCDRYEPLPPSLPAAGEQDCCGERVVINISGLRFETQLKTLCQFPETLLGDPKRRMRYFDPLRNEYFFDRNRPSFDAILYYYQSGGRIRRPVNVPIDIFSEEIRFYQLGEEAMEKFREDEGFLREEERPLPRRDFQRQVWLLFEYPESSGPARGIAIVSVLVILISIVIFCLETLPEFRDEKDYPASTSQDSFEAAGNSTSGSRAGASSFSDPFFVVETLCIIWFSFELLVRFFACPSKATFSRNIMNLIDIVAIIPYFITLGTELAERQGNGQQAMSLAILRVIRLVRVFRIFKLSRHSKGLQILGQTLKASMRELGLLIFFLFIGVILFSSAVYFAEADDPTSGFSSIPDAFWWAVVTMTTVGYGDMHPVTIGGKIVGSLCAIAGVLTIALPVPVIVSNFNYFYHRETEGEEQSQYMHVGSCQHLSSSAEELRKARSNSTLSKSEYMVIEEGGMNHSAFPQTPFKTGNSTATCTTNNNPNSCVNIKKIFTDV", "assay": "Whole-cell patch-clamp of Kv1.3 currents in PHA-activated human T lymphocytes", "type": "cell-based", "description": "as §1\nIsochronal RCF data points obtained this way (isochronal RCF = I4ms/I4ms,0 where I4ms,0 and I4ms are the currents at 4 ms time point in the absence and presence of CboK peptides, respectively) at different toxin concentrations were fitted with the Hill equation to obtain concentration–response curves as shown in Figure 6H.\nHuman peripheral venous blood was acquired from anonymous healthy volunteers from the blood bank. Blood samples were collected by having approval from the Ethical Committee of the Hungarian Medical Research Council (36255-6/2017/EKU). PBMCs were separated by Histopaque 1077 (Sigma-Aldrich, Budapest, Hungary) separation technique, and isolated cells, at the density of 5 × 10^5 cells, were cultured in RPMI 1640 media (Gibco, Grand Island, NY, USA) supplemented with 10% FBS (Sigma-Aldrich, Budapest, Hungary), 2 mM L-glutamine, […], and […] penicillin in a humidified incubator at 37 °C and 5% CO2 for 3–6 days. A measure of 2, 5, or 10 μg/mL of Phytohemagglutinin A (PHA) (Sigma-Aldrich, Budapest, Hungary) was added in cultured cells to activate the PBMCs and upregulate the Kv1.3 expression.\nas §3, with “suction.” for “suction. The extracellular solution (bath solution) contained 145 mM NaCl, 5.5 mM glucose, 5 mM KCl, 2.5 mM CaCl2, 1 mM MgCl2, and 10 mM HEPES, having pH of 7.35 and an osmolarity between 302 and 308 mOsM/L. Toxins were dissolved in bath solution at different molar concentrations and supplemented with 0.1 mg/mL of bovine serum albumin BSA (Sigma-Aldrich, Budapest, Hungary). The intracellular solution (pipette filling) was comprised of 140 mM KF, 2 mM MgCl2, 1 mM CaCl2, 10 mM HEPES, and 11 mM EGTA, with a pH of 7.22 and an osmolarity of ~295 mOsM/L.”"}, "Kv1.2 (Homo sapiens)": {"biological_target": "Kv1.2 (Homo sapiens) (UniProt P16389)", "sequence (P16389 whole entry)": "as the sequence (P16389 whole entry) above", "settings": "cited from earlier work"}, "Kv1.1": {"biological_target": "Kv1.1", "parameters": "method as in 3 sources, ref 40 (CoTx1), 32 (CoTx2) ||| ref 33 = [33]; PMID 26921461; doi:10.1016/j.toxicon.2016.02.017; 33. Olamendi-Portugal T. Bartok A. Zamudio-Zuñiga F. Balajthy A. Becerril B. Panyi G. Possani L.D. Isolation, chemical and functional characterization of several new K+-channel blocking peptides from ||| ref 33 (II-x toxins), 40 (CoTx1)", "settings": "no reference given; read-out: Kd for Kv1.1 (positive control concentration equivalent to Kd); cited from earlier work"}, "Kv1.3 [2]": {"biological_target": "Kv1.3", "settings": "no reference given; read-out: Kd for Kv1.3 (positive control concentration equivalent to Kd); cited from earlier work"}}, "note": "pKd: −log10 of the molar value. Read-outs that look alike come from different tables or passages of the source. Where a SMILES comes first, the peptide text is derived from it. Bridges are numbered along the chain shown (N, C = ends)."}
{"compound": "Maurotoxin", "values": [{"measurement": "selectivity for Kv1.2 over Kv1.1, literature", "setting": "Kv1.2; 46 (Maurotoxin), 40 (CoTx1)", "value": "~ 56 fold"}, {"measurement": "selectivity for Kv1.2 over Kv1.3, literature", "setting": "Kv1.2; 46 (Maurotoxin), 40 (CoTx1)", "value": 225, "unit": "fold"}, {"measurement": "pKd", "setting": "Kv1.2; ref 40 (CoTx1), 33 (II-x toxins), 45, 46 (Maurotoxin), read-out: Kd for Kv1.2, literature", "value": 9.10}]}
{"compound": "Charybdotoxin [ChTx, reference compound]", "values": [{"measurement": "reduction in Kv1.2 current by positive control", "setting": "hKv1.2; 14 nM ChTx, equilibrium block", "value": "Approximately 50%"}, {"measurement": "pKd", "setting": "Kv1.2; no reference given, read-out: Kd for Kv1.2 (positive control concentration equivalent to Kd)", "value": 7.85}]}
{"compound": "CC[C@H](C)[C@H](NC(=O)[C@H](Cc1ccccc1)NC(=O)[C@@H](N)[C@@H](C)O)C(=O)N[C@@H](CC(N)=O)C(=O)N[C@H](C(=O)N[C@@H](CCCCN)C(=O)N[C@H]1CSSC[C@@H]2NC(=O)[C@H](CCCCN)NC(=O)[C@H](CCC(=O)O)NC(=O)CNC(=O)[C@H](C)NC(=O)[C@H](Cc3c[nH]cn3)NC(=O)[C@@H]3CCCN3C(=O)CNC(=O)[C@H](Cc3ccc(O)cc3)NC(=O)[C@H](CC(C)C)NC(=O)[C@H](CC(=O)O)NC(=O)[C@H](CCCCN)NC(=O)[C@@H]3CSSC[C@@H](C(=O)N[C@@H](Cc4ccc(O)cc4)C(=O)N[C@@H](CCCCN)C(=O)N4CCC[C@H]4C(=O)O)NC(=O)[C@H](CCCCN)NC(=O)[C@H](CSSC[C@H](NC(=O)[C@H](CCC(N)=O)NC(=O)[C@H](CCCCN)NC(=O)[C@@H]4CCCN4C(=O)[C@H](CO)NC(=O)[C@H]([C@@H](C)O)NC1=O)C(=O)N[C@@H](CC(C)C)C(=O)N[C@@H](CCCCN)C(=O)N1CCC[C@H]1C(=O)N3)NC(=O)[C@H](CCCCN)NC(=O)CNC(=O)[C@H](CC(N)=O)NC(=O)[C@H](CCSC)NC2=O)C(C)C", "note": "[CboK4] (H-TFINVKCTSPKQCLKPCKDLYGPHAGEKCMNGKCKCYKP-OH; disulfide 7-29, 13-34, 17-36 (inferred); N-terminus and C-terminus assumed)", "values": [{"measurement": "inhibition of Kv1.1 currents", "setting": "hKv1.1; 100 nM toxin, equilibrium block, screening summary (Figure 4D), n ≥ 3", "value": "less than 10%"}, {"measurement": "pKd", "setting": "hKv1.2; equilibrium block", "value": 9.90}, {"measurement": "Hill coefficient H, Kv1.2 block", "setting": "hKv1.2", "value": 1.0}, {"measurement": "Hill coefficient H, Kv1.3 block", "setting": "Kv1.3 [1]; Hill fit of isochronal RCF (4 ms), n ≥ 3", "value": 0.94}, {"measurement": "pKd", "setting": "Kv1.3 [1]; Hill fit of isochronal RCF (current at 4 ms), 15-ms pulses to +50 mV from -120 mV, n ≥ 3, read-out: Kd for Kv1.3", "value": 7.66}]}
{"compound": "CoTx1 (from UniProt O46028)", "values": [{"measurement": "pKd", "setting": "Kv1.2 (Homo sapiens)", "value": 7.57}]}
{"compound": "CC[N+](CC)(CC)CC", "note": "[TEA, tetraethylammonium, reference compound]", "values": [{"measurement": "reduction in Kv1.1 current by positive control", "setting": "hKv1.1; 0.3 mM TEA, equilibrium block", "value": "Approximately 50%"}, {"measurement": "reduction in Kv1.3 current by positive control", "setting": "Kv1.3 [1]; 10 mM TEA, equilibrium block", "value": "Approximately 50%"}, {"measurement": "pKd", "setting": "Kv1.1", "value": 3.52}, {"measurement": "pKd", "setting": "Kv1.3 [2]", "value": 2.00}]}
{"compound": "CC[C@H](C)[C@H](N)C(=O)N[C@@H](Cc1ccccc1)C(=O)N[C@H](C(=O)N[C@@H](CC(N)=O)C(=O)N[C@H](C(=O)N[C@@H](CCCCN)C(=O)N[C@H]1CSSC[C@@H]2NC(=O)[C@H](CCCCN)NC(=O)CNC(=O)CNC(=O)[C@H](C)NC(=O)[C@H](Cc3c[nH]cn3)NC(=O)[C@H](CCC(N)=O)NC(=O)CNC(=O)[C@H](Cc3ccccc3)NC(=O)[C@H](CCCNC(=N)N)NC(=O)[C@H](CC(=O)O)NC(=O)[C@H](CCCCN)NC(=O)[C@@H]3CSSC[C@@H](C(=O)N[C@@H](Cc4ccc(O)cc4)C(=O)N4CCC[C@H]4C(=O)O)NC(=O)[C@H](CCCCN)NC(=O)[C@H](CSSC[C@H](NC(=O)[C@H](CCC(N)=O)NC(=O)[C@H](CCC(N)=O)NC(=O)[C@@H]4CCCN4C(=O)[C@H](CC(C)C)NC(=O)[C@H](CO)NC1=O)C(=O)N[C@@H](CC(C)C)C(=O)N[C@@H](CCCNC(=N)N)C(=O)N1CCC[C@H]1C(=O)N3)NC(=O)[C@H](CCCCN)NC(=O)CNC(=O)[C@H](CC(N)=O)NC(=O)[C@H]([C@@H](C)CC)NC2=O)C(C)C)[C@@H](C)CC", "note": "[CboK5] (H-IFINVKCSLPQQCLRPCKDRFGQHAGGKCINGKCKCYP-OH; disulfide 7-29, 13-34, 17-36 (inferred); N-terminus and C-terminus assumed)", "values": [{"measurement": "effect on Kv1.1 currents", "setting": "hKv1.1; 100 nM toxin", "value": "did not inhibit"}, {"measurement": "pKd", "setting": "hKv1.1; this study, screened at 100 nM, read-out: Kd Values Kv1.1 (symbol)", "value": "< 7.00"}, {"measurement": "inhibition of Kv1.2 current, representative traces", "setting": "hKv1.2; 1 nM toxin, steady-state block, representative cell (Figure 4B, 5A)", "value": "~ 75%"}, {"measurement": "reversibility of Kv1.2 block", "setting": "hKv1.2; 1 nM toxin, wash with toxin-free control solution", "value": "completely reversed"}, {"measurement": "pKd", "setting": "hKv1.2; equilibrium block", "value": 9.42}, {"measurement": "Hill coefficient H, Kv1.2 block", "setting": "hKv1.2", "value": 1.2}, {"measurement": "pKd", "setting": "Kv1.3 [1]; approximate, concentration-response data not obtained for CboK5, read-out: Kd for Kv1.3 (CboK5)", "value": 6.90}]}
